Test systems include LXFL 529 NSCLC; XF 498 CNS; DMS 273 small cell lung; M19-MEL melanoma; SNB-78 CNS; DLD-1 colon; KM20L2 colon; DMS 114 small cell lung; OVCAR-5 ovarian; MDA-N; HOP-18 NSCLC; RXF-631 renal.
Common to all, as to assay: NCI tumour cell line growth inhibition, 48 h

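Grown in 96-well plates, cells were treated for 48 hours with each compound at five concentrations. Insufficient inhibition: endpoint recorded as highest concentration tested. TGI denotes the concentration required for complete inhibition of growth.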

For `CC1=C(N2CC2)C(=O)C(C)=C(N2CC2)C1=O`, the TGI in the test on LXFL 529 NSCLC was 0.431 µM; with XF 498 CNS it was 0.3 µM; in the test on DMS 273 small cell lung, 1.38 µM; in the test on M19-MEL melanoma it was 0.92 µM; with SNB-78 CNS it was above 100 µM; in the test on DLD-1 colon, 0.829 µM. Besides, the TGI was 0.568 µM in the test with KM20L2 colon; 0.471 µM in the test on DMS 114 small cell lung; 3.3 µM in the test on OVCAR-5 ovarian; 2.9 µM with MDA-N; 11.4 µM with HOP-18 NSCLC.
For the compound `COc1ccccc1NC(=O)C(=O)C(c1cnc2ccc([N+](=O)[O-])cc2n1)[N+](=O)[O-]` (centres undefined), the TGI in the test on LXFL 529 NSCLC, in the test on XF 498 CNS, in the test with DMS 273 small cell lung, with M19-MEL melanoma, in the test with SNB-78 CNS and with DLD-1 colon was above 100 µM in each case. In addition, the TGI in the test with KM20L2 colon was above 100 µM; in the test on DMS 114 small cell lung it was 66.4 µM; with OVCAR-5 ovarian, above 100 µM; in the test with RXF-631 renal, above 100 µM; with HOP-18 NSCLC it was above 100 µM.
As to `CCCCCCCC(=O)OC(COC(=O)Cc1ccccc1)COC(=O)C(C)(C)C` (centres undefined), the TGI in the test with LXFL 529 NSCLC, in the test with DMS 273 small cell lung, with M19-MEL melanoma, in the test on DLD-1 colon, with KM20L2 colon and with DMS 114 small cell lung was above 100 µM each time. Moreover, the TGI with OVCAR-5 ovarian, with RXF-631 renal and in the test on HOP-18 NSCLC was above 100 µM each time.
`Cc1cc(N(CCC#N)CCC#N)ccc1/C=C(\N=[N+]=[N-])C(=O)NC(=O)COc1ccccc1`: the TGI in the test on LXFL 529 NSCLC, in the test on XF 498 CNS, in the test on DMS 273 small cell lung, in the test with SNB-78 CNS, with DLD-1 colon and in the test with KM20L2 colon was above 100 µM in each case. Moreover, the TGI in the test with DMS 114 small cell lung, in the test with OVCAR-5 ovarian, with RXF-631 renal and in the test on HOP-18 NSCLC was above 100 µM each time.
With `O=C1CS(=O)c2ccccc2N1` (centres undefined), the TGI is above 100 µM in the test on LXFL 529 NSCLC; above 100 µM with XF 498 CNS; 33.9 µM with DMS 273 small cell lung; above 100 µM with M19-MEL melanoma; above 100 µM in the test with SNB-78 CNS; above 100 µM with DLD-1 colon. Further, the TGI in the test with KM20L2 colon, in the test with OVCAR-5 ovarian, with RXF-631 renal and with HOP-18 NSCLC was above 100 µM each time.
On to `CN(CCO)c1nc(=O)c2c(n1C1OC(CO)C(O)C(O)C1O)CCCC2` (centres undefined), for which the TGI in the test on LXFL 529 NSCLC, in the test on XF 498 CNS, with DMS 273 small cell lung, with M19-MEL melanoma, in the test on SNB-78 CNS and in the test on DLD-1 colon was above 100 µM each time. Moreover, the TGI in the test on KM20L2 colon, with DMS 114 small cell lung, in the test on OVCAR-5 ovarian and in the test with HOP-18 NSCLC was above 100 µM throughout.
Consider `CCOC(=O)C1=C(C)C2C3C(=O)OC(=O)C3C1(C)C1C(=O)OC(=O)C21` (centres undefined), for which the TGI in the test with LXFL 529 NSCLC, with DMS 273 small cell lung, with M19-MEL melanoma, in the test on SNB-78 CNS, in the test with DLD-1 colon and in the test on KM20L2 colon was above 100 µM each time. The TGI in the test with DMS 114 small cell lung and in the test on RXF-631 renal was above 100 µM in each case.
With `N#CCCN(c1ccc(C=Nc2ccc(C(=O)O)cc2)cc1)S(=O)(=O)c1ccccc1`, the TGI in the test on LXFL 529 NSCLC, in the test on XF 498 CNS, in the test on DMS 273 small cell lung, in the test on M19-MEL melanoma, in the test on SNB-78 CNS and with DLD-1 colon was above 100 µM throughout. Further, the TGI in the test with KM20L2 colon, with DMS 114 small cell lung, with OVCAR-5 ovarian and with HOP-18 NSCLC was above 100 µM throughout.
Take `COc1cc2c(c(OC)c1)C(=O)C(=O)C(CC1(C)OCCCO1)=C2`: the TGI came to 14.6 µM in the test with LXFL 529 NSCLC; 25.6 µM with XF 498 CNS; 28.4 µM in the test on DMS 273 small cell lung; 6.18 µM with M19-MEL melanoma; 26 µM in the test on SNB-78 CNS; 8.45 µM in the test with DLD-1 colon. Further, the TGI with KM20L2 colon came to 31.9 µM; in the test on DMS 114 small cell lung, 12.7 µM; in the test with OVCAR-5 ovarian, 37.7 µM; with RXF-631 renal it was 36.6 µM; with HOP-18 NSCLC, 24.5 µM.
Take `CCOC(=O)C(C(=O)OCC)S(C)(=O)=O`: the TGI in the test with XF 498 CNS, in the test on DMS 273 small cell lung, in the test with M19-MEL melanoma, in the test with DLD-1 colon, with KM20L2 colon and with DMS 114 small cell lung was above 100 µM throughout. In addition, the TGI with OVCAR-5 ovarian, in the test on RXF-631 renal and in the test with HOP-18 NSCLC was above 100 µM in each case.

The values above are taken from PubChem BioAssay (NCI).
